Experimental data published in patent publication US9290544B2, “Methods for making and using molecular switches involving circular permutation” (priority 2004, dated 2016).

Experiments:
[1] = Dissociation constant for maltose from initial rate of carbenicillin hydrolysis; format: binding; conditions: 1.5 mM carbenicillin, 25° C., read-out: Kd maltose, Saturating Carbenicillin, Enzymatic assay
[2] = Hydrolysis of carbenicillin by RG-200-13 with and without 5 mM maltose; format: biochemical; conditions: substrate carbenicillin 1 mM; pH 7.0, 22° C.
Description: (§1) A 6×His tag was added to the C-terminus of RG-200-13 (also termed “RG13” in Examples below) and the fusion was purified as previously described (Guntas and Ostermeier 2004). The protein was purified to approximately 60% purity. The kinetic constants and binding constants were determined from Eadie-Hofstee plots and Eadie plot equivalents, respectively, using a spectrophotometric assay for nitrocefin hydrolysis. Initial rates for nitrocefin hydrolysis were determined from absorbance at 486 nm monitored as a function of time. The enzyme was incubated at the assay temperature in the absence or presence of saccharide for four minutes prior to performing the assay. All assays contained 100 mM sodium phosphate buffer, pH 7.0. The dissociation constant for maltose was determined using change in velocity of nitrocefin hydrolysis as a signal.
(§2) Maltose binding had the largest effect on cephalothin (of the substrates tested), with the velocity of cephalothin hydrolysis being 32-fold higher in the presence of maltose than in its absence.

[3] = Hydrolysis of ampicillin by RG-200-13 with and without 5 mM maltose; format: biochemical; conditions: pH 7.0, 22° C.
Description: as §1, §2

[4] = Affinity of switches for maltose (method not given); format: binding
Description: Exemplary switches were created by the method having different affinities for maltose.

DH5α-E cells = experiment: In vivo characterization: MIC of ampicillin for DH5α-E cells expressing the protein; format: cell-based, E. coli; conditions: for Minimum Inhibitory Concentration of Ampicillin: LB plates, 37° C., 20 hours
Description: Overnight inoculums of DH5α-E cells expressing RG13, BLA or BLA(W208G) were diluted into LB media and plated on LB plates, either in the absence or presence of 50 μM maltose, in the presence of increasing amounts of ampicillin. Ampicillin was present in the plates at the following concentrations: 0, 2, 4, 8, 16, 32, 64, 128, 256, 512, and 2000 μg/ml. Cells were plated at approximately 1000 CFU (no antibiotic) per plate. The plates were incubated at 37° C. for 20 hours. The minimum inhibitory concentration (MIC) was defined as the lowest ampicillin concentration at which no colonies were present, or that at which the number of colonies present was <1% of the number of colonies at the next lowest level of ampicillin.

[5] = Hydrolysis of cephalothin by RG-200-13 with and without 5 mM maltose; format: biochemical; conditions: substrate cephalothin 250 μM; pH 7.0, 22° C.
Description: as §1, §2

[6] = Apparent dissociation constant for maltose from initial rate of nitrocefin hydrolysis; format: binding; conditions: 25° C.
Description: [formula] where ΔF is the change in fluorescence intensity, ΔFmax is the difference in fluorescence between no maltose and saturating amounts of maltose and [L] is the maltose concentration. The fluorescence quenching of RG13(1329W/A96W) upon addition of maltose was insufficient to accurately determine a Kd by this method. The dissociation constant for maltose and RG13(I329W) in the presence of saturating carbenicillin (2 mM) was determined by measuring the initial rate of carbenicillin hydrolysis as a function of maltose concentration. The apparent dissociation constant in the presence of subsaturating concentrations of nitrocefin (25 μM) for all three proteins was determined by measuring the initial rate of nitrocefin hydrolysis as a function of maltose concentration.

[7] = Ampicillin hydrolysis by purified RG13, 25° C.; format: biochemical; conditions: 50 μM ampicillin
Description: All kinetic assays were performed at 25° C. in the presence of 100 mM sodium phosphate buffer, pH 7.0. Ten μl of enzyme stock was added to 1.59 ml buffer (containing the saccharide, if desired). After incubation for 30 seconds, 0.4 ml of 5× substrate was added and the absorbance at the appropriate wavelength was recorded using the Cary50 UV-VIS spectrophotometer. The wavelength monitored was 486 nm, 240 nm, and 232 nm for nitrocefin, carbenicillin, and ampicillin respectively. From the initial rate of reaction the kinetic constants were determined using Eadie-Hofstee plots. […] The rate data was consistent with a small hysteretic effect (Brennan et al. 1994) and not substrate inhibition as preincubation of the enzyme with the substrate for one minute prevented the lag from occurring upon addition of more substrate. Therefore, the steady state parameters for nitrocefin hydrolysis in the absence of maltose were determined by measuring the rate at 1-2 minutes (well after the lag) and correcting the substrate concentration by subtracting the amount of substrate hydrolyzed. In all cases the extent of reaction at the point the rate was measured was less than 25%. In the presence of maltose, no lag was observed.

E. coli cells = experiment: MIC of ampicillin for E. coli cells expressing RG13 from pDIMC8 (Table 11); format: cell-based
Description: The signal recognition domain can be altered by rational design or directed evolution to bind to new effectors. With respect to testing mutations predicted by rational design or screening or selecting libraries created for a directed evolution approach, existing switches are used to efficiently test or select for binding to new ligands in vivo. For example, E. coli cells expressing the MBP-BLA switch RG13 from the lac promoter on pDIMC8 have a higher MIC for ampicillin (Amp) in the presence of maltose than in their absence (Table 11) because the BLA enzymatic activity of RG13 (hydrolysis of ampicillin) is higher in the presence of maltose. Thus, for example, mutations created in RG13 (either by rational design or by a stochastic or semi-stochastic method) such that mutant forms of RG13 bind another ligand X (and behave as a switch) can be screened or selected for in vivo. E. coli producing such a new switch will grow at 200 μg/ml Amp in the presence of X but not in the absence of X.

[8] = Spectrophotometric nitrocefin hydrolysis assay of purified RG-200-13, 22° C.; format: biochemical; conditions: for Change in velocity of nitrocefin hydrolysis in presence of sugar: 50 μM nitrocefin; for Change in velocity of nitrocefin hydrolysis in presence of sugar / Km / kcat: pH 7.0, 22° C.
Description: as §1

[9] = Dissociation constant for maltose using change in velocity of nitrocefin hydrolysis as signal; conditions: 22° C.; read-out: Kd for maltose binding
Description: as §1

[10] = Hydrolysis of oxacillin by RG-200-13 with and without 5 mM maltose; format: biochemical; conditions: substrate oxacillin 1 mM; pH 7.0, 22° C.
Description: as §1, §2

RG13: MBP-BLA fusion switch MBP[1-316]-BLA[227-286]-GSGGG-BLA[24-226]-S-MBP[319-370]; SEQ ID NO: 61
Kd [1]: 0.9 ± 0.1 µM
Approximate fold increase in velocity of carbenicillin hydrolysis in the presence of 5 mM maltose [2]: ~4 fold
Approximate fold increase in velocity of ampicillin hydrolysis in the presence of 5 mM maltose ([3]; substrate ampicillin 100 μM): ~26 fold
Approximate fold increase in velocity of ampicillin hydrolysis in the presence of 5 mM maltose ([3]; substrate ampicillin 500 μM): ~10 fold
Kd [4]: 1 to 5 µM
Effect of the same concentration (50 μM) of sucrose or glucose on the MIC (DH5α-E cells): did not affect the MIC
Increase of MIC for ampicillin in the presence of 50 μM maltose (DH5α-E cells): four-fold
Minimum Inhibitory Concentration of Ampicillin (DH5α-E cells; 50 μM maltose): 512 µg/mL
Minimum Inhibitory Concentration of Ampicillin (DH5α-E cells; No maltose): 128 µg/mL
Fold increase in velocity of cephalothin hydrolysis with 5 mM maltose [5]: 32 fold
Kd [6]: 6.7 ± 0.03 µM
Rate increase with maltose [7]: 16 fold
MIC ampicillin (E. coli cells; supplement to plate: 50 μM maltose): 400 µg/mL
MIC ampicillin (E. coli cells; supplement to plate: 5 mM maltose): 400 µg/mL
MIC ampicillin (E. coli cells; supplement to plate: none, LB plates, 37° C.): 100 µg/mL
Change in velocity of nitrocefin hydrolysis in presence of sugar ([8]; Galactose 5 mM): −3%
Change in velocity of nitrocefin hydrolysis in presence of sugar ([8]; Lactose 5 mM): −4%
Change in velocity of nitrocefin hydrolysis in presence of sugar ([8]; Maltose 5 mM): +1800%
Change in velocity of nitrocefin hydrolysis in presence of sugar ([8]; Maltotetraitol 5 mM): +400%
Change in velocity of nitrocefin hydrolysis in presence of sugar ([8]; Maltotriose 5 mM): +1700%
Change in velocity of nitrocefin hydrolysis in presence of sugar ([8]; Sucrose 5 mM): −5%
Km ([8]; nitrocefin, 5 mM maltose): ~85 µM
kcat ([8]; nitrocefin, 5 mM maltose, listed as RG-200-13): ~520 s⁻¹
Km Ratio (with maltose)/(without maltose) ([8]; nitrocefin, 22° C.): ~0.26
kcat Ratio (with maltose)/(without maltose) ([8]; nitrocefin, 22° C.): ~6.5
Km ([8]; nitrocefin, no maltose): ~325 µM
kcat ([8]; nitrocefin, no maltose): ~80 s⁻¹
Change in velocity of nitrocefin hydrolysis in presence of sugar ([8]; β-cyclodextrin 3 mM): +150%
Kd [9]: ~5 µM
Approximate fold increase in velocity of oxacillin hydrolysis in the presence of 5 mM maltose [10]: ~5 fold
